Reference: BigSolDB 2.1

COC(=O)[C@@H](N)CC(C)C.Cl
solubility (mole fraction)
Details | 283.15 K | 288.15 K | 293.15 K | 298.15 K | 303.15 K | 308.15 K | 313.15 K | 318.15 K | 323.15 K | 328.15 K
in 1,4-dioxane | – | 0.0539 | 0.0579 | 0.0621 | 0.0715 | 0.0799 | 0.0918 | 0.11 | 0.127 | 0.158
in 2-butanone | 0.00114 | 0.00125 | 0.00141 | 0.00158 | 0.00186 | 0.00238 | 0.00297 | 0.00388 | 0.00524 | –
in acetone | 0.00343 | 0.00389 | 0.00451 | 0.00562 | 0.00661 | 0.00806 | 0.01 | 0.0129 | 0.0172 | –
in acetonitrile | 0.00109 | 0.00154 | 0.00205 | 0.00313 | 0.00401 | 0.0051 | 0.00776 | 0.011 | 0.0162 | –
in dimethyl carbonate | 0.000287 | 0.000319 | 0.00038 | 0.000478 | 0.000629 | 0.000924 | 0.00127 | 0.00167 | 0.00213 | –
in ethyl acetate | 0.000226 | 0.000237 | 0.000277 | 0.000342 | 0.000421 | 0.000593 | 0.000729 | 0.000892 | 0.00124 | –
in isopropyl acetate | 0.000136 | 0.000152 | 0.000178 | 0.000219 | 0.000246 | 0.00029 | 0.000358 | 0.000429 | 0.000561 | –
in methyl acetate | 0.000388 | 0.000472 | 0.000629 | 0.000834 | 0.00105 | 0.00138 | 0.0019 | 0.00244 | 0.00347 | –
in n-butanol | 0.0885 | 0.0916 | 0.0983 | 0.109 | 0.123 | 0.139 | 0.155 | 0.171 | 0.196 | –
in n-hexane | 0.000296 | 0.000331 | 0.000371 | 0.000433 | 0.000505 | 0.00063 | 0.000782 | 0.000983 | 0.0012 | –
in n-pentanol | 0.0571 | 0.062 | 0.0696 | 0.0787 | 0.0917 | 0.104 | 0.121 | 0.137 | 0.156 | –
in n-propyl acetate | 0.00123 | 0.00129 | 0.00145 | 0.00189 | 0.00234 | 0.00292 | 0.0036 | 0.00455 | 0.00541 | –
